The source of these data is patent US20250114460A1, “NOVEL PLK1 DEGRADATION INDUCING COMPOUND” (UPPTHERA, INC., priority 2021, published 2025).

T1 sequence (P53350 whole entry): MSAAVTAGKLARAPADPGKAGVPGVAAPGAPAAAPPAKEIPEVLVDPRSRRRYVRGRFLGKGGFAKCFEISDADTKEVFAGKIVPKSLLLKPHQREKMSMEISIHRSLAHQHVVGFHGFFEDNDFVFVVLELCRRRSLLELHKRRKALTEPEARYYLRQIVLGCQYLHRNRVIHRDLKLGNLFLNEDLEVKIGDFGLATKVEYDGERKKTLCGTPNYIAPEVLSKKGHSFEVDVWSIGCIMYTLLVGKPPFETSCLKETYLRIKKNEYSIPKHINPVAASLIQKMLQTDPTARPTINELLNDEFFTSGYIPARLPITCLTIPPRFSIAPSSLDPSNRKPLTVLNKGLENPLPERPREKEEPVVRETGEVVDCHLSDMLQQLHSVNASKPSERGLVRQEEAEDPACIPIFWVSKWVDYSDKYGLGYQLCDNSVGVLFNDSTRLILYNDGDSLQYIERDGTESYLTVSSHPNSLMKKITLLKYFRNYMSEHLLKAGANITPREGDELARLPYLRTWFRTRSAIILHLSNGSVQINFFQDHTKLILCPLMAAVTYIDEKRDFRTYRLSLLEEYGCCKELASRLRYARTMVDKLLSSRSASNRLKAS

This assay addresses T1, PLK1 (Homo sapiens, UniProt P53350).
T1 construct: endogenous in cells; host or cells: HeLa LgBit (Plk1-HiBit KI): HeLa stably expressing LgBit, with a CRISPR/Cas9 knock-in of HiBit at the endogenous PLK1 locus
Put plainly: Luciferase assay for PLK1 in HeLa LgBit (Plk1-HiBit KI) cell line. In kind it is cell-based. Particulars: 300 nM compound, luminescence after 9 hours. The method, boiled down: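 HeLa cells stably expressing LgBit, with HiBit knocked in at the C-terminus of endogenous Plk1, released from a 24 h 2 mM thymidine block and grown 18 h. Endurazine added, then compound at 300 nM; luminescence tracked in real time, expressed as ratio to DMSO.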
Regarding `COc1cc(C(=O)NC2CCN(C[C@@H]3CCN(c4ccc5c(c4)C(=O)N(C4CCC(=O)NC4=O)C5=O)C3)CC2)ccc1Nc1ncc2c(n1)N(C1CCCC1)CC(F)(F)C(=O)N2C` (stereo partly drawn) [Compound 48, 4-((9-cyclopentyl-7,7-difluoro-5-methyl-6-oxo-6,7,8,9-tetrahydro-5H-pyrimido[4,5-b][1,4]diazepin-2-yl)amino)-N-(1-(((3S)-1-(2-(2,6-dioxopiperidin-3-yl)-1,3-dioxoisoindolin-5-yl)pyrrolidin-3-yl)methyl)piperidin-4-yl)-3-methoxybenzamide], the “Activity: ratio of the luminescense value of each Exemplary Compound treatment group to DMSO treatment group” value (“Activity: ratio” below) is “+ (+<0.7)”.

As for `CN1C(=O)C(F)(F)CN(C2CCCC2)c2nc(Nc3ccc(C(=O)NC4CCN(C(=O)CCCNc5cccc6c5C(=O)N(C5CCC(=O)NC5=O)C6=O)CC4)cc3F)ncc21` (centres unmarked) [Compound 27, 4-((9-cyclopentyl-7,7-difluoro-5-methyl-6-oxo-6,7,8,9-tetrahydro-5H-pyrimido[4,5-b][1,4]diazepin-2-yl)amino)-N-(1-(4-((2-(2,6-dioxopiperidin-3-yl)-1,3-dioxoisoindolin-4-yl)amino)butanoyl)piperidin-4-yl)-3-fluorobenzamide], the “Activity: ratio” value was “++ (++<0.6)”.

With `COc1cc(C(=O)NN2CCN(C3CCN(c4ccc5c(c4)C(=O)N(C4CCC(=O)NC4=O)C5=O)CC3(F)F)CC2)ccc1Nc1ncc2c(n1)N(C(C)C)CC(F)(F)C(=O)N2C` (centres unmarked) [Compound 168, 4-((7,7-difluoro-9-isopropyl-5-methyl-6-oxo-6,7,8,9-tetrahydro-5H-pyrimido[4,5-b][1,4]diazepin-2-yl)amino)-N-(4-(1-(2-(2,6-dioxopiperidin-3-yl)-1,3-dioxoisoindolin-5-yl)-3,3-difluoropiperidin-4-yl)piperazin-1-yl)-3-methoxybenzamide], the “Activity: ratio” value is given as “++ (++<0.6)”.

For the molecule `COc1cc(C(=O)NC2CCCN(CC3CCN(c4cccc5c4C(=O)N(C4CCC(=O)NC4=O)C5=O)CC3)C2)ccc1Nc1ncc2c(n1)N(C1CCCC1)CC(F)(F)C(=O)N2C` (centres unmarked) [Compound 126, 4-((9-cyclopentyl-7,7-difluoro-5-methyl-6-oxo-6,7,8,9-tetrahydro-5H-pyrimido[4,5-b][1,4]diazepin-2-yl)amino)-N-(1-((1-(2-(2,6-dioxopiperidin-3-yl)-1,3-dioxoisoindolin-4-yl)piperidin-4-yl)methyl)piperidin-3-yl)-3-methoxybenzamide], the “Activity: ratio” value is reported as “+ (+<0.7)”.

As for `COc1cc(C(=O)NC2CCN(CC3CCN(c4cccc5c4C(=O)N(C4CCC(=O)NC4=O)C5=O)C3)CC2)ccc1Nc1ncc2c(n1)N(C1CCCC1)CC(F)(F)C(=O)N2C` (centres unmarked) [Compound 46, 4-((9-cyclopentyl-7,7-difluoro-5-methyl-6-oxo-6,7,8,9-tetrahydro-5H-pyrimido[4,5-b][1,4]diazepin-2-yl)amino)-N-(1-((1-(2-(2,6-dioxopiperidin-3-yl)-1,3-dioxoisoindolin-4-yl)pyrrolidin-3-yl)methyl)piperidin-4-yl)-3-methoxybenzamide], the “Activity: ratio” value is reported as “++ (++<0.6)”.

Take `COc1cc(C(=O)NC2CCN(CCCc3cccc4c3C(=O)N(C3CCC(=O)NC3=O)C4=O)CC2)ccc1Nc1ncc2c(n1)N(C1CCCC1)CC(F)(F)C(=O)N2C` (centres unmarked) [Compound 14, 4-((9-cyclopentyl-7,7-difluoro-5-methyl-6-oxo-6,7,8,9-tetrahydro-5H-pyrimido[4,5-b][1,4]diazepin-2-yl)amino)-N-(1-(3-(2-(2,6-dioxopiperidin-3-yl)-1,3-dioxoisoindolin-4-yl)propyl)piperidin-4-yl)-3-methoxybenzamide]: the “Activity: ratio” value was “++ (++<0.6)”.

Consider `COc1cc(C(=O)NC2CCN(C(=O)CC[C@H]3CN(Cc4cccc5c4C(=O)N(C4CCC(=O)NC4=O)C5=O)CCO3)CC2)ccc1Nc1ncc2c(n1)N(C1CCCC1)CC(F)(F)C(=O)N2C` (stereo partly drawn) [Compound 174, 4-((9-cyclopentyl-7,7-difluoro-5-methyl-6-oxo-6,7,8,9-tetrahydro-5H-pyrimido[4,5-b][1,4]diazepin-2-yl)amino)-N-(1-(3-((2S)-4-((2-(2,6-dioxopiperidin-3-yl)-1,3-dioxoisoindolin-4-yl)methyl)morpholin-2-yl)propanoyl)piperidin-4-yl)-3-methoxybenzamide], for which the “Activity: ratio” value is on record as “++ (++<0.6)”.

As for `COc1cc(C(=O)N[C@H]2CC[C@H](N3CCN(CCOCCOc4cccc5c4CN(C4CCC(=O)NC4=O)C5=O)CC3)CC2)ccc1Nc1ncc2c(n1)N(C1CCCC1)CC(F)(F)C(=O)N2C` (some centres unmarked) [Compound 198, 4-((9-cyclopentyl-7,7-difluoro-5-methyl-6-oxo-6,7,8,9-tetrahydro-5H-pyrimido[4,5-b][1,4]diazepin-2-yl)amino)-N-((1r,4r)-4-(4-(2-(2-((2-(2,6-dioxopiperidin-3-yl)-1-oxoisoindolin-4-yl)oxy)ethoxy)ethyl)piperazin-1-yl)cyclohexyl)-3-methoxybenzamide], the “Activity: ratio” value is “++ (++<0.6)”.

On to `COc1cc(C(=O)N2CCC(N3CCN(CCOCCNc4cccc5c4C(=O)N(C4CCC(=O)NC4=O)C5=O)CC3)CC2)c(F)cc1Nc1ncc2c(n1)N(C1CCCC1)CC(F)(F)C(=O)N2C` (centres unmarked) [Compound 189, 4-((2-(2-(4-(1-(4-((9-cyclopentyl-7,7-difluoro-5-methyl-6-oxo-6,7,8,9-tetrahydro-5H-pyrimido[4,5-b][1,4]diazepin-2-yl)amino)-2-fluoro-5-methoxybenzoyl)piperidin-4-yl)piperazin-1-yl)ethoxy)ethyl)amino)-2-(2,6-dioxopiperidin-3-yl)isoindoline-1,3-dione], for which the “Activity: ratio” value is reported as “++ (++<0.6)”.

Turning to `COc1cc(C(=O)N2CCC(CCCN3CCN(c4cccc5c4C(=O)N(C4CCC(=O)NC4=O)C5=O)CC3)CC2)ccc1Nc1ncc2c(n1)N(C1CCCC1)CC(F)(F)C(=O)N2C` (centres unmarked) [Compound 95, 4-(4-(3-(1-(4-((9-cyclopentyl-7,7-difluoro-5-methyl-6-oxo-6,7,8,9-tetrahydro-5H-pyrimido[4,5-b][1,4]diazepin-2-yl)amino)-3-methoxybenzoyl)piperidin-4-yl)propyl)piperazin-1-yl)-2-(2,6-dioxopiperidin-3-yl)isoindoline-1,3-dione], the “Activity: ratio” value is listed as “++ (++<0.6)”.

Turning to `COc1cc(C(=O)NC2CCN(C(=O)CCCC#Cc3cccc4c3C(=O)N(C3CCC(=O)NC3=O)C4=O)CC2)ccc1Nc1ncc2c(n1)N(C1CCCC1)CC(F)(F)C(=O)N2C` (centres unmarked) [Compound 180, 4-((9-cyclopentyl-7,7-difluoro-5-methyl-6-oxo-6,7,8,9-tetrahydro-5H-pyrimido[4,5-b][1,4]diazepin-2-yl)amino)-N-(1-(6-(2-(2,6-dioxopiperidin-3-yl)-1,3-dioxoisoindolin-4-yl)hex-5-ynoyl)piperidin-4-yl)-3-methoxybenzamide], the “Activity: ratio” value is given as “++ (++<0.6)”.
